# Measurements from ChEMBL document CHEMBL1201862, “PubChem BioAssay data set” (2004).
# Calls of active or inactive are those of the source.
# Columns and labels:
# [1] = target: Nonstructural protein 1 (Influenza A virus, UniProt Q194T2); type: functional, Influenza A virus (A/California/07/2009(H1N1))
# [2] = blockers of HIV-1 ZM109 envelope-driven cell-cell fusion – HeLa effector, CEM target cells, luciferase, cherry-pick, dose response (AID 652058); type: functional, cell-based;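 note: luciferase signal from HIV-1 Env mediated cell-cell fusion of effector and target cells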
# [3] = HIV-1 AD8 envelope cell-cell fusion blockers – cherry-pick, dose response (AID 652062); type: functional, cell-based;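 note: luciferase signal from cell-cell fusion driven by HIV-1 clade B AD8 Env; potency is for inhibitors of fusion seen as a drop in luminescence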
# [4] = blockers of HIV-1 envelope-mediated cell-cell fusion – cherry-pick, dose response (AID 652057); type: functional, cell-based
# [5] = Luminescence Cell-Based Dose Confirmation HTS to Identify Inhibitors of Platelet Dense Granule Release. [Related pubchem assays: 1663 (Primary HTS), 1678 (Summary of Project)]; type: functional
# [6] = target: Luciferin 4-monooxygenase (Photinus pyralis, UniProt P08659); assay: inhibition of purified Photinus pyralis luciferase – biochemical, luminescence, dose response (AID 1891)
# Sequence of Luciferin 4-monooxygenase (P08659 whole entry): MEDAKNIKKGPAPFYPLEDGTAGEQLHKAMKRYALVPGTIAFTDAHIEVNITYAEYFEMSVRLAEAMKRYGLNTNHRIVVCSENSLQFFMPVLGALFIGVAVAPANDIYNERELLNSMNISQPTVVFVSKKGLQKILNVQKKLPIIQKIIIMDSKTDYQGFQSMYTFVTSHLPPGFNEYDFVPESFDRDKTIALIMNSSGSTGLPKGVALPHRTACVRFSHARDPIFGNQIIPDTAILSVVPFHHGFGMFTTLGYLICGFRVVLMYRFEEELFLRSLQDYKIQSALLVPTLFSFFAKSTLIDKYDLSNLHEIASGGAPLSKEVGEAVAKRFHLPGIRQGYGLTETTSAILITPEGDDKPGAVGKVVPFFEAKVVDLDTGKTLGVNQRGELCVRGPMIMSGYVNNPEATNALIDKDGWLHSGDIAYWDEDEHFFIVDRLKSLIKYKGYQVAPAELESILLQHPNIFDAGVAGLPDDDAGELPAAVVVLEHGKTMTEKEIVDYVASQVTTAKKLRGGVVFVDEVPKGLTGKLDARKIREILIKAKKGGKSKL
# [7] = target: Genome polyprotein (dengue virus type 2, UniProt P29990); assay: flavivirus cap methylation enzyme inhibition – biochemical, confirmation dose response, primary screen (AID 588689); type: functional
# Sequence of Genome polyprotein (P29990 2492-3391 limits assumed): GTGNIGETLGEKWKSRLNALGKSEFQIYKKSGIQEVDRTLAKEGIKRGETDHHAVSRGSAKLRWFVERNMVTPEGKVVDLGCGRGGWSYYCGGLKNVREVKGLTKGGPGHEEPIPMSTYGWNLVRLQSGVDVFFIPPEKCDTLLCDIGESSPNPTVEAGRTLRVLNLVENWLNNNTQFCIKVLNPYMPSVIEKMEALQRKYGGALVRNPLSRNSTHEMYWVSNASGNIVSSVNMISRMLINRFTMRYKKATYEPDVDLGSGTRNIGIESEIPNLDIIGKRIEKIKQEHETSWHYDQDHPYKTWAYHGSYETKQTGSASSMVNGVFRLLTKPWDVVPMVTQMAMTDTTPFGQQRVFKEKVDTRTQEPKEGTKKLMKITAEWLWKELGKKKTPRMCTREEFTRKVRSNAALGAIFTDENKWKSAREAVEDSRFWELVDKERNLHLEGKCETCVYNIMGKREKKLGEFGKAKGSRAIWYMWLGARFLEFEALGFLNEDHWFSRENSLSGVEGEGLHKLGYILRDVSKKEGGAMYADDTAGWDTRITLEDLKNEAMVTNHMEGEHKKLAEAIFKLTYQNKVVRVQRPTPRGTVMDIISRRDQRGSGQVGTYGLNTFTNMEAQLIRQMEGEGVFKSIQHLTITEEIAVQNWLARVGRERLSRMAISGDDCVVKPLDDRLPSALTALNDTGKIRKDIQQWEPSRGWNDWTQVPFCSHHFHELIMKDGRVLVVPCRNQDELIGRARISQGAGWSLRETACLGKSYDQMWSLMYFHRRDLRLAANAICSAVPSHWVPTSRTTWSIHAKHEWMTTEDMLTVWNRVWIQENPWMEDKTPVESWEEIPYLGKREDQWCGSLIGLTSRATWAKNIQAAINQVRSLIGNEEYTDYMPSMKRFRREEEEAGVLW
# [8] = target: T1, Small ubiquitin-related modifier 1 (Homo sapiens, UniProt P63165); assay: SUMO1 protein interaction blockers, potency – biochemical, fluorescence polarization, uHTS hits, dose response (AID 624382); type: functional; details: read-out: IC50_Mean
# T1 sequence (P63165 whole entry): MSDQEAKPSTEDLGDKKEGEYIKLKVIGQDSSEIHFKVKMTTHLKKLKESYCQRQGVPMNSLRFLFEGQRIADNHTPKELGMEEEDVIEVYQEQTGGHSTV
# [9] = target: T1, Small ubiquitin-related modifier 1; assay: SUMO1 protein-protein binding blockers, potency – biochemical, FRET, dose response (AID 624383); type: functional; details: read-out: IC50_Mean
# [10] = target: T2, Aminopeptidase N (Plasmodium falciparum FcB1/Columbia, UniProt O96935); assay: malaria alanyl aminopeptidase activity blockers – biochemical, fluorogenic H-Leu-NHMec substrate, 1536-well (AID 1445); design: species or system Plasmodium falciparum 3D7, 3D7
# T2 sequence (O96935 whole entry): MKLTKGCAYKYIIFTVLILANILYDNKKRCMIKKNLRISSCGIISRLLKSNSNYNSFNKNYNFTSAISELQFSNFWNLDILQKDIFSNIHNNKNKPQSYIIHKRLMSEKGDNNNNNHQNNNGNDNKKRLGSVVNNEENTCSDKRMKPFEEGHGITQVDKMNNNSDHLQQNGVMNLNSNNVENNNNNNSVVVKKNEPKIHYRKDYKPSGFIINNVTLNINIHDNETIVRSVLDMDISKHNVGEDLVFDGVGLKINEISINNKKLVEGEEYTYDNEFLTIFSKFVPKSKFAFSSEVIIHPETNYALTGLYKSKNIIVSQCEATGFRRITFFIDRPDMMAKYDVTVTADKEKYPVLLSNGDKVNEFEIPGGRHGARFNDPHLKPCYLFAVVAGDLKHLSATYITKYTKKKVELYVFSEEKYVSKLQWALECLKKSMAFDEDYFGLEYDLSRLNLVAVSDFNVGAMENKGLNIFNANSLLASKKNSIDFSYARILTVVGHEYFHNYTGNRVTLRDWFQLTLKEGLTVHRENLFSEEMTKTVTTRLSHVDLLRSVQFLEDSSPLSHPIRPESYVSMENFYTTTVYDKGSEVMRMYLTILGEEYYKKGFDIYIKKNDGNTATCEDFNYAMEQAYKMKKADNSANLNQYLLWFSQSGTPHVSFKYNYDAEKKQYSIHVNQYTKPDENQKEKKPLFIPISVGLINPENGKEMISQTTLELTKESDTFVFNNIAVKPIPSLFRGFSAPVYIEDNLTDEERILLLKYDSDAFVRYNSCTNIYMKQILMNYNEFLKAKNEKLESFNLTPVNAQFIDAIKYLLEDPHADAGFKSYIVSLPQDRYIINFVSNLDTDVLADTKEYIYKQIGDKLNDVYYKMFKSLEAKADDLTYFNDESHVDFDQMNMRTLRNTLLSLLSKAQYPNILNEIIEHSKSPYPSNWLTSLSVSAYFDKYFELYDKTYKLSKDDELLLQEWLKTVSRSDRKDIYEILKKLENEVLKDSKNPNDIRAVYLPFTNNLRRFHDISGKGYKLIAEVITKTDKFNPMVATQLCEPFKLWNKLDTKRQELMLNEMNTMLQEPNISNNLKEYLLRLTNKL
# [11] = viability of uninfected HEp-2 cells – cell-based, HTS, cytotoxicity control for RSV inhibitor project, dose response (AID 2410); type: functional; details: human respiratory syncytial virus
# [12] = Trypanosoma cruzi growth suppression in host cells – NIH3T3 host cells, beta-gal luminescence, confirmation (AID 2044); type: functional, cell-based;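 note: intracellular parasites grown in NIH/3T3 mouse fibroblasts as host cells; luminescent beta-galactosidase reporter signal from transgenic T. cruzi replicating inside host cells; inhibitors lower the luminescence signal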
# [13] = NIH3T3 cell viability loss – ATP luminescence, mouse fibroblasts, counter-screen, dose response (AID 2010); type: functional, cell-based;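 note: cells exposed to compound for about 90 hours before reading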
# [14] = test system: H9c2; assay: cells; type: functional, cell-based; details: Rattus norvegicus, H9c2, Myocardium;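 note: confirmatory concentration-response retest of ultra-high-throughput screening hits for modulation of myocardial damage; cell death induced by hydrogen peroxide oxidative stress; compound pretreatment for 60 min then peroxide exposure for 2 h; potency is for protecting the cells against peroxide damage rather than for killing them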
# [15] = microbe, parasite or virus in culture; type: functional; details: Mycobacterium tuberculosis
# [16] = target: T3, Heat shock factor protein 1 (Mus musculus, UniProt P38532); assay: enhancement of HSF1-driven luciferase signal – cell-based, NIH3T3, luminescence, dose retest, confirmation (AID 435004); type: functional;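 note: stress induced by proteasome inhibitor MG132 added 30 min after compound; luciferase reporter driven by HSF1 response element in NIH3T3 cells; actives raise luminescence as potentiators of the MG132 stress response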
# T3 sequence (P38532 whole entry): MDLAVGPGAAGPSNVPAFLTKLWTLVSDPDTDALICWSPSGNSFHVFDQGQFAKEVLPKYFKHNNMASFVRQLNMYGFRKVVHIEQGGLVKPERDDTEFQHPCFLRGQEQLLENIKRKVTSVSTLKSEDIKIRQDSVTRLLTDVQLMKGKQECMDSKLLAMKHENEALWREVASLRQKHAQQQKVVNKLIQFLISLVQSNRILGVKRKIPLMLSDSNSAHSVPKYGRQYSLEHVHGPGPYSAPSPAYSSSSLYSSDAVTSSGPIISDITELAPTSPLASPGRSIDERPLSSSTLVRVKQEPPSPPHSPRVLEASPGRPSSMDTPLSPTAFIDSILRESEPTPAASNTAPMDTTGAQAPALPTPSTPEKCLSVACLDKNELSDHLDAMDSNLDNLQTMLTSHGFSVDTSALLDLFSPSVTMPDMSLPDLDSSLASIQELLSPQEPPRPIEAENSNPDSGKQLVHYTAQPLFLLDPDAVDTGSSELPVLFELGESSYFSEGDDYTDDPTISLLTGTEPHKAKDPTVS
# [17] = target: Induced myeloid leukemia cell differentiation protein Mcl-1 (Homo sapiens, UniProt Q07820); type: functional
# Sequence of Induced myeloid leukemia cell differentiation protein Mcl-1 (Q07820 whole entry): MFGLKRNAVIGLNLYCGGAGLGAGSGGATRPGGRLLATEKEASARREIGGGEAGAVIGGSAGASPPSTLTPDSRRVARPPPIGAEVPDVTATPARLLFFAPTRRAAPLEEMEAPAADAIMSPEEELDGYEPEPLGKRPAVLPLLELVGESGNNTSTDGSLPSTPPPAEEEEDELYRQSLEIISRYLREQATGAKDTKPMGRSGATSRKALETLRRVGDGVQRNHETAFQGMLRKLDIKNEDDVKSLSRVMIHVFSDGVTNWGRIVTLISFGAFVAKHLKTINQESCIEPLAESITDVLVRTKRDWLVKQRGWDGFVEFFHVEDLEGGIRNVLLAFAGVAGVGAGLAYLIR
# [18] = viability of PTEN-deleted HCT116 cells – cell-based, HCT116 PTEN knockout, dose response (AID 1047); type: functional;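 note: HCT116 colon tumor cells with PTEN knocked out; cells exposed to compound for 60 hours before readout; potency for loss of cell viability measured by luminescence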
# [19] = viability of HCT116 lacking mutant beta-catenin – cell-based, human colon tumor, dose response (AID 1045); type: functional;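 note: HCT116 colon tumor cells with beta catenin knocked out; cells exposed to compound for 60 hours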
# [20] = target: Heat shock protein HSP 90-alpha (Homo sapiens, UniProt P07900); type: functional, organism-based
# [21] = test system: Streptococcus; assay: GAS UMAA2166 growth inhibition – luminescence, BacTiterGlo, counter-screen for streptokinase expression inhibitor project, dose response (AID 1915); type: functional, organism-based;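 note: potency for reduction of bacterial viability or growth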
# [22] = test system: BJ; assay: BJ-TERT fibroblast viability loss – cell-based, RAS-independent, luminescence, dose response (AID 1933); type: functional; details: Homo sapiens
# [23] = test system: Streptococcus sp. 'group A'; assay: Streptococcus pyogenes SK(-)GAS viability under kanamycin – luminescence, BacTiterGlo, confirmation, counter-screen for streptokinase expression inhibitor project, dose response (AID 1900); type: functional, organism-based
# [24] = test system: BJ; assay: cells; type: functional, cell-based; details: Homo sapiens
# [25] = DRD fibroblast viability loss – cell-based, non-viral oncogenic, luminescence, dose response (AID 1934); type: functional; details: Homo sapiens
# [26] = test system: BJ; assay: BJ-TERT-LT-ST fibroblast viability loss – cell-based, RAS-independent, luminescence, dose response (AID 1935); type: functional; details: Homo sapiens;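 note: BJ fibroblasts immortalized with TERT plus LT and ST oncogenes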
# [27] = test system: SN12K1; assay: cells; type: functional; details: Homo sapiens
# Sequence of Nonstructural protein 1 (Q194T2 whole entry, the tested form may be a part): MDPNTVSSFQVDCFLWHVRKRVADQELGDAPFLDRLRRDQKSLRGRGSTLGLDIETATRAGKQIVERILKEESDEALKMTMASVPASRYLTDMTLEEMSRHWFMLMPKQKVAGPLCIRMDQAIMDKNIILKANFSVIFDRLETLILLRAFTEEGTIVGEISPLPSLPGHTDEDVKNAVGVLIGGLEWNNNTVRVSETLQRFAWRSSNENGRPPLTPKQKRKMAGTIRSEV
smiles,measurement,setting,value
C=CC(=O)Nc1cccc(Oc2ccnc(Nc3ccc(N4CCN(C)CC4)cc3)n2)c1,IC50,[1],23.1 µM (active)
Cc1noc(C)c1S(=O)(=O)N(C)C[C@@H]1Oc2ccc(NC(=O)NC3CCCCC3)cc2CC(=O)N([C@H](C)CO)C[C@@H]1C,AC50,[2],4.3 µM (active)
same,AC50,[3],4.26 µM (active)
same,AC50,[4],5.98 µM (active)
Cc1ccc(/C=N/NC(=O)C(O)c2ccccc2)o1 (stereo not given),EC50,[5],> 112 µM (not active)
same,EC50,[6],> 112 µM (not active)
CCCCCCCC1=NN(c2ccc(S(=O)(=O)O)cc2)C(=O)C1N=O (stereo not given),IC50,[7],27.4 µM (active)
CC1(C)C2CC[C@]3(C)[C@H](C(=O)C=C4[C@@H]5C[C@@](C)(C(=O)O)CC[C@]5(C)CC[C@]43C)[C@@]2(C)CC[C@@H]1O[C@H]1O[C@H](C(=O)O)[C@@H](O)[C@H](O)[C@H]1O[C@@H]1O[C@H](C(=O)O)[C@@H](O)[C@H](O)[C@H]1O (stereo not given in full),IC50,[8],> 66.6 µM (inactive)
same,IC50,[9],9.45 µM (active)
Cc1ccc2c(c1)c1nnc(SCC(=O)Nc3ccccc3C(F)(F)F)nc1n2CC(=O)O,IC50,[10],18.6 µM (active)
O=C(O)c1ccc(N=N/C(=N\Nc2ccc(C(=O)O)cc2)c2ccccc2)cc1,IC50,[7],30.4 µM (active)
NC(=O)c1ccsc1NC(=O)c1cc(=O)c2ccccc2o1,IC50,[8],> 66.6 µM (inactive)
same,IC50,[9],11.7 µM (active)
NC(=O)CSc1cn(Cc2ccc(F)cc2)c2ccccc12,EC50,[5],> 112 µM (not active)
same,EC50,[6],> 112 µM (not active)
COc1ccc(S(=O)(=O)Nc2ccc3c(c2)CC(=O)N([C@H](C)CO)C[C@H](C)[C@H](CN(C)S(=O)(=O)c2ccccc2)O3)cc1,AC50,[3],2.09 µM (active)
same,AC50,[4],< 0.26 µM (active)
Cc1cccc(N=C(S)NCc2ccncc2)c1C,EC50,[5],> 112 µM (not active)
same,EC50,[6],> 112 µM (not active)
COc1ccc(C(C2C(=O)CC(C)(C)CC2=O)C2C(=O)CC(C)(C)CC2=O)cc1CO,IC50,[7],45.8 µM (active)
COC(=O)C(NC(=O)c1ccccc1C)(Nc1ncc(S(=O)(=O)c2ccc([N+](=O)[O-])cc2)s1)C(F)(F)F (stereo not given),CC50,[11],12.4 µM (active)
O=C(Nc1nc(-c2ccccc2)cs1)C1CCCN(S(=O)(=O)c2ccccc2)C1 (stereo not given),EC50,[12],2.68 µM (active)
same,EC50,[13],> 30 µM (not active)
same,CC50,[11],2.26 µM (active)
O=C(O)/C(CC(=O)c1ccc(Cl)cc1)=N/Nc1ccc([N+](=O)[O-])cc1[N+](=O)[O-],IC50,[7],12.5 µM (active)
O=C(COc1cccc2c1CCNC2=O)Nc1cccc(F)c1,IC50,[14],> 79 µM (inactive)
COc1ccc(CCn2c(Br)nc3c2c(=O)[nH]c(=O)n3C)cc1,IC50,[14],> 79 µM (inactive)
Clc1ccc(NNc2ccnc3cc(Cl)ccc23)cc1,IC50,[1],34.6 µM (active)
same,CC50,[15],> 40 µM (active)
CSc1ccccc1C(=O)Nc1nc2ccccc2[nH]1,EC50,[5],> 112 µM (not active)
same,EC50,[6],> 112 µM (not active)
Cc1ccc(-c2nnc(CSc3nc(C(C)C)nc4sc(C)c(C)c34)o2)cc1,EC50,[5],> 112 µM (not active)
same,EC50,[6],> 112 µM (not active)
Oc1ccc(/C=N/NC(=S)N/N=C/c2ccc(O)cc2)cc1,EC50,[5],0.317 µM (active)
same,EC50,[6],0.316 µM (active)
CCn1c(NCc2cc(Cl)ccc2O)nc2ccccc21,CC50,[11],44.7 µM (active)
CN(C)C(=O)C1C2N=C(S)N(c3cccc(Cl)c3)C1(C)Oc1ccc(Cl)cc12 (stereo not given),IC50,[14],54.6 µM (inactive)
CCOC(=O)C(C)Oc1ccc(C2NC(=O)NC(C)=C2C(C)=O)cc1Br (stereo not given),IC50,[14],30.6 µM (inactive)
Cc1ccc(NC(C)C(=O)N/N=C/c2c[nH]c3ccccc23)cc1 (stereo not given),EC50,[5],> 112 µM (not active)
same,EC50,[6],> 112 µM (not active)
O=C(Nc1nccs1)c1cccc(N2C(=O)c3cccc4c([N+](=O)[O-])ccc(c34)C2=O)c1,EC50,[16],8.49 µM (active)
same,IC50,[17],1.45 µM (not active)
same,EC50,[18],3.77 µM (active)
same,EC50,[19],2.23 µM (active)
CCC(CC)c1nnc(NC(=O)CCNC(=O)c2ccccc2Cl)s1,EC50,[5],> 112 µM (not active)
same,EC50,[6],> 112 µM (not active)
CCCOc1ccc(/C=C2/C(=O)ON=C2C)cc1OCC,IC50,[7],29 µM (active)
COc1cccc(C=NNC(=O)c2ccncc2)c1O,IC50,[1],6.26 µM (active)
CN1C(=S)N(c2cccnc2)C(=O)/C1=C\c1ccc(N(C)C)cc1,IC50,[1],> 100 µM (active)
Oc1cccc2ccc(/C=C/c3ccccc3Br)nc12,AC50,[20],12.9 µM (active)
same,EC50,[21],3.96 µM (active)
same,EC50,[22],20 µM (active)
same,EC50,[23],0.212 µM (active)
same,EC50,[24],18.1 µM (active)
same,EC50,[25],17.4 µM (active)
same,EC50,[26],108 µM (active)
Cc1cc2ccccc2n1CCNC(=O)COc1ccc2ccccc2c1,CC50,[11],21.4 µM (active)
O=C(O)CP(=O)(c1ccccc1)c1ccccc1,IC50,[8],> 66.6 µM (inactive)
same,IC50,[9],100 µM (inactive)
COC(=O)c1ccc(C(=O)OC)c(NC(=O)COC(=O)C23CC4CC(CC(O)(C4)C2)C3)c1,IC50,[14],> 79 µM (inactive)
C/C(=N\Nc1nc(C(=O)O)cs1)c1ccccc1,IC50,[10],34.2 µM (active)
O=c1cc(O)ccn1C1C=C(CO)C(O)C1O (stereo not given),GI50,[27],> 625 µM (inactive)
CCN1CCCC1CN(Cc1cc2ccc(C)cc2nc1O)C(S)=Nc1ccc(F)cc1 (stereo not given),AC50,[20],2.64 µM (active)
O=C(CN1CCN(c2ncc(C(F)(F)F)cc2Cl)CC1)NCCNc1ncc(C(F)(F)F)cc1Cl,AC50,[20],5.87 µM (active)
CCn1c(=O)c(C(=O)NC(C)c2ccccc2)c(O)c2ccccc21 (stereo not given),IC50,[14],13.5 µM (active)
